Measured values reported in ChEMBL document CHEMBL1150324, “Support vector machines classification of hERG liabilities based on atom types” (Bioorg Med Chem, 2008).

How the values were obtained:
[1] = molecular target: Voltage-gated inwardly rectifying potassium channel KCNH2 (Homo sapiens, UniProt Q12809); experiment: (§1) Inhibition of human ERG expressed in CHO cells by whole cell patch clamp technique; conditions: for pIC50: human
hERG (KCNH2) = hERG (KCNH2) (Homo sapiens, UniProt Q12809); experiment: as §1; conditions: human
[2] = CHO cells that express human ERG

Voltage-gated inwardly rectifying potassium channel KCNH2, sequence (Q12809 whole entry): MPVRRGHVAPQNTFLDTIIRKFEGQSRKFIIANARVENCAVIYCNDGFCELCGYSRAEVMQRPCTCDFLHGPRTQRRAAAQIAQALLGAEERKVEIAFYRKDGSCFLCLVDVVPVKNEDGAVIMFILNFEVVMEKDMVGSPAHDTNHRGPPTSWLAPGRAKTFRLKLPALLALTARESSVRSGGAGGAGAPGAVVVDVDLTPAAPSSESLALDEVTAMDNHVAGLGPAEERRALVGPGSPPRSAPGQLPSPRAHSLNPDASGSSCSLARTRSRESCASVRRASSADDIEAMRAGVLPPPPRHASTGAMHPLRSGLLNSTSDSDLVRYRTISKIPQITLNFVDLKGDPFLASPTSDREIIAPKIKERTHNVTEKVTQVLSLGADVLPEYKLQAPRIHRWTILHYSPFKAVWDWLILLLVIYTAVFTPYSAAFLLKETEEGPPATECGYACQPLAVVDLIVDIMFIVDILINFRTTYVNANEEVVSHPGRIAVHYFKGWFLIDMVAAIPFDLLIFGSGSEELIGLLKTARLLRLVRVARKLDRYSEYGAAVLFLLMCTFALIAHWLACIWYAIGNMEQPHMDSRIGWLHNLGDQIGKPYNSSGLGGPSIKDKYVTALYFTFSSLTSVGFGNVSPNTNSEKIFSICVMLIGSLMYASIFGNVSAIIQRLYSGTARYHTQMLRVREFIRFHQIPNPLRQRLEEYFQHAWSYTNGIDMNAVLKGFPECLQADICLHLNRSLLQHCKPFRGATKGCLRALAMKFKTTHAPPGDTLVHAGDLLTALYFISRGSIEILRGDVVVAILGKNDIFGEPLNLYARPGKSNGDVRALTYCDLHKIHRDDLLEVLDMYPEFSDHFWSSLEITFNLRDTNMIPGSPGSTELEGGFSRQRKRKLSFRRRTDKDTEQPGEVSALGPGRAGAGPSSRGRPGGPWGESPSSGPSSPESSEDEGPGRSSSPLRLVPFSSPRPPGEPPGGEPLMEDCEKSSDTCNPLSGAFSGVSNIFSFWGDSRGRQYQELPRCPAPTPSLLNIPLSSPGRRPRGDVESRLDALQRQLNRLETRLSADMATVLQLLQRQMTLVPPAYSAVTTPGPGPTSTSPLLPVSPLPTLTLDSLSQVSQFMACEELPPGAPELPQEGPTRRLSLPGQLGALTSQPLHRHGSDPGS
hERG (KCNH2), sequence (Q12809 whole entry): as above

SMILES: COc1ccc(C2CCN(CC[C@H]3CCOc4ccccc43)CC2)cc1OC
- pIC50 ([1]; cho): 6.7

SMILES: CC[C@H]1OC(=O)[C@H](C)[C@@H](O[C@H]2C[C@@](C)(OC)[C@@H](O)[C@H](C)O2)[C@H](C)[C@@H](O[C@@H]2O[C@H](C)C[C@H](N(C)C)[C@H]2O)[C@](C)(OC)C[C@@H](C)C(=O)[C@H](C)[C@@H](O)[C@]1(C)O [CLARITHROMYCIN]
- pIC50 ([1]; cho): 4.23

SMILES: Oc1ccc(CCN2CCC(Nc3nc4ccccc4n3Cc3ccc(F)cc3)CC2)cc1 [DESMETHEYLASTEMIZOLE]
- IC50 [1]: 0.001 µM

SMILES: COc1c(N2CCNC(C)C2)c(F)cc2c(=O)c(C(=O)O)cn(C3CC3)c12 (configuration not stated) [GATIFLOXACIN]
- IC50 [1]: 129 µM

SMILES: O=C(OC1CC2CC3CC(C1)N2CC3O)c1c[nH]c2ccccc12 (configuration not stated) [MDL-74156]
- IC50 [1]: 5.89 µM

SMILES: CN(c1nccc(=O)[nH]1)C1CCN(c2nc3ccccc3n2Cc2ccc(F)cc2)CC1 [MIZOLASTINE]
- pIC50 ([1]; cho): 6.36

SMILES: CN1CCC[C@H]1c1cccnc1 [NICOTINE]
- pIC50 ([1]; cho): 3.61

SMILES: CCOC(=O)C1=C(C)NC(C)=C(C(=O)OC)C1c1cccc([N+](=O)[O-])c1 (configuration not stated) [NITRENDIPINE]
- IC50 (hERG (KCNH2); [2]): 10 µM

SMILES: Cc1cc2c(s1)Nc1ccccc1N=C2N1CCN(C)CC1 [OLANZAPINE]
- pIC50 ([1]; cho): 6.74

SMILES: C[C@@H]1CN(c2c(F)c(N)c3c(=O)c(C(=O)O)cn(C4CC4)c3c2F)C[C@H](C)N1 [SPARFLOXACIN]
- pIC50 [1, 2]: 4.74

SMILES: COc1ccc(C2CCN(CC[C@H]3CCOc4ccccc43)CC2)cc1OC [TERIKALANT]
- IC50 (hERG (KCNH2); cho): 0.251 µM

SMILES: COc1ccc(C(=O)N2CCN(c3ccc4c(c3)CCC(=O)N4)CC2)cc1OC [VESNARINONE]
- pIC50 [1, 2]: 5.96
